Data reported in patent US10583127B2, “Amine salt of (1R, 3S)-3-(5-cyano-4-phenyl-1,3- thiazol-2-ylcarbamoyl)cyclopentane carboxylic acid” (PALOBIOFARMA, S.L., priority 2017, dated 2020).
Entries after “also recorded” stand apart in the source; their conditions may differ. Like-named read-outs stand apart in the source and are kept apart here.

Assays:
[1] = Hygroscopicity study by Dynamic Vapour Sorption (DVS) profiles; assay type: physicochemical; settings: for moisture content at 25% RH / moisture content at 55% RH / moisture content at 75% RH (variation in the moisture content): DVS sorption isotherm at 25° C.
Method: Hygroscopicity studies of salts were carried out by preparation of Dynamic Vapour Sorption (DVS) profiles, with a TA instrument Q5000 apparatus. After an initial stabilization period (samples are pre-dried at 60° C. under vacuum), isotherms (at 25° C.) were obtained for each sample: a moisture sorption from 0 to 95% relative humidity (RH) and moisture desorption from 95% RH to dryness. Both isotherms were performed in 5% and 10% humidity steps.
The relative humidity (RH) was controlled by a mixture of wet and dry nitrogen stream. The RH was held constant until the equilibrium had been obtained (constant weight) or until the maximum time has been reached, before changing the RH to the next level.

[2] = Stability study under forced conditions (one week at 40° C. and 70% RH, XRPD check); assay type: physicochemical
Method: Stability studies under forced conditions were carried out by keeping the product under study for one week at 40° C. and 70% RH. Salts were analyzed by XRPD to check any change in the crystalline form.

[3] = Solubility screen assay (nephelometry); settings: 37° C.
Method: (§1) Solubility screen assays were carried out as following: stock solutions (10^−2M) of the assayed compounds were diluted to decreased molarity from 500 μM to 0.256 nM, in 384 well transparent plate (Greiner 781101) with 5% DMSO: 95% PBS buffer. Samples were incubated at 37° C. and read after 2 and 4 hours in a NEPHELOstar Plus (BMGLABTECH).

[4] = Oral bioavailability assay: plasma pharmacokinetics after single IV and PO administration; settings: male SD rats
Method: (§2) Animals were divided into two groups: Group 1 (IV: 1 mg/kg) and Group 2 (PO: 5 mg/kg). […] The blood samples were collected from set of three rats at each time point in labeled micro centrifuge tube containing K2EDTA solution as anticoagulant at Pre-dose, 0.083, 0.25, 0.5, 1, 2, 4, 8 and 24 hr (IV) and Pre-dose, 0.25, 0.5, 1, 2, 4, 6, 8 and 24 hr (PO). Plasma samples were separated by centrifugation of whole blood and stored below −70±10° C. until bioanalysis. All samples were processed for analysis by protein precipitation using acetonitrile and analyzed with fit-for-purpose LC-MS/MS method (LLOQ=1.00 ng/ml). Pharmacokinetic parameters were calculated using the non-compartmental analysis tool of Phoenix WinNonlin® (Version 6.3).
(§3) AUC last refers to the area under the curve from the time of dosing to the time of last observation that is greater than the limit of quantitation.
(§4) Clearance refers to the measurement of the ability of the body to remove drug from the plasma, and is calculated from the intravenous dosing.
(§5) F % refers to the bioavailability. The systemic availability of a compound after oral administration is calculated using the following equation: F(%)=(AUClast PO×Dose IV/AUClast IV×Dose PO)×100

in vivo = settings: male, SD, rat
Method: as §2, §3, §4, §5

physchem = settings: 37 °C, aqueous with cosolvent or surfactant or cyclodextrin, kinetic from dmso stock
Method: as §1

[5] = listed as (1R-3S)-3-(5-cyano-4-phenyl-1,3-thiazol-2-ylcarbamoyl)cyclopentane carboxylic ac
[6] = DVS, usual drug storage conditions (<75% RH)

N#Cc1sc(NC(=O)[C@H]2CC[C@@H](C(=O)O)C2)nc1-c1ccccc1 [(1R,3S)-3-(5-cyano-4-phenyl-1,3-thiazol-2-ylcarbamoyl)cyclop] [1,3-dihydroxy-2-(hydroxymethyl)propan-2-aminium (1R,3S)-3-((5-cyano-4-phenylthiazol-2-yl)carbamoyl)cyclopentane-1-carboxylate]
moisture content at 25% RH [1, 5]: 0.0722%
moisture content at 55% RH [1, 5]: 0.1165%
moisture content at 75% RH (variation in the moisture content) [1, 5]: 0.2096%
moisture content at 75% RH (variation in the moisture content) ([1]; listed as tromethamine salt): 0.17%
hygroscopicity (result in words) [1, 6]: less hygroscopic than the free acid form
hygroscopicity (result in words) ([1]; DVS, usual drug storage conditions (<75% RH), listed as tromethamine salt): less hygroscopic than free acid
stability under forced conditions (result in words) [2]: no cristallinity changes, colour or any other change in the aspect were observed; also recorded: stable solid, even under forced stability conditions
solubility compared with other salts and free acid [3]: higher solubility compared to others salts
AUC last ([4]; iv 1 mg/Kg, plasma, 1 mg/kg): 2373.87 ng·h/mL
clearance ([4]; iv 1 mg/Kg, 1 mg/kg): 7.11 mL/min/kg

N#Cc1sc(NC(=O)[C@H]2CC[C@@H](C(=O)O)C2)nc1-c1ccccc1 [(1R,3S)-3-(5-cyano-4-phenyl-1,3-thiazol-2-ylcarbamoyl)cyclop] [(1R,3S)-3-(5-cyano-4-phenyl-1,3-thiazol-2-ylcarbamoyl)cyclopentane carboxylic acid]
moisture content at 25% RH [1]: 0.1283%
moisture content at 55% RH [1]: 0.3008%
moisture content at 75% RH (variation in the moisture content) [1]: 0.4369%
moisture content at 75% RH (variation in the moisture content) ([1]; listed as free acid): 0.43%
hygroscopicity (result in words) [1, 6]: exhibits certain levels of hygroscopicity

N#Cc1sc(NC(=O)[C@H]2CC[C@@H](C(=O)O)C2)nc1-c1ccccc1 [(1R,3S)-3-(5-cyano-4-phenyl-1,3-thiazol-2-ylcarbamoyl)cyclopentane carboxylic acid]
AUC(0-t) ([4]; male, SD, rat, plasma, iv, 1 mg/kg, AUC last, iv 1 mg/Kg): 2200 ng·h/mL
clearance ([4]; male, SD, rat, plasma, iv, 1 mg/kg, Clearance, iv 1 mg/Kg): 6.3 mL/min/kg

CCNCC.N#Cc1sc(NC(=O)[C@H]2CC[C@@H](C(=O)O)C2)nc1-c1ccccc1 [Diethylammonium (1R,3S)-3-((5-cyano-4-phenylthiazol-2-yl)carbamoyl)cyclopentane-1-carboxylate]
stability under forced conditions (result in words) [2]: showed some degradation
clearance ([4]; iv 1 mg/Kg): 5.02 mL/min/kg
AUC last ([4]; iv 1 mg/Kg, plasma): 3383.00 ng·h/mL
F % (bioavailability) ([4]; po 5 mg/Kg vs iv 1 mg/Kg, from AUClast): 68%
AUC last ([4]; po 5 mg/Kg, plasma): 11580.30 ng·h/mL
Cmax ([4]; po 5 mg/Kg, solution in normal saline, plasma): 5906.53 ng/mL

N#Cc1sc(NC(=O)[C@H]2CC[C@@H](C(=O)[O-])C2)nc1-c1ccccc1.[Na+] [Sodium (1R,3S)-3-((5-cyano-4-phenylthiazol-2-yl)carbamoyl)cyclopentane-1-carboxylate]
hygroscopicity (result in words) [1, 6]: showed evident hygroscopicity
stability under forced conditions (result in words) [2]: did not have good stability, changed color
AUC(0-t) (in vivo; iv, 1 mg/kg): 5090 ng·h/mL
clearance (in vivo; iv, 1 mg/kg): 3.31 mL/min/kg
AUC(0-t) (in vivo; po, 5 mg/kg): 21600 ng·h/mL
Cmax (in vivo; po, 5 mg/kg): 13200 ng/mL
bioavailability (in vivo; po, 5 mg/kg): 85%
solubility (physchem): 36.3 µM

Magnesium (1R,3S)-3-((5-cyano-4-phenylthiazol-2-yl)carbamoyl)cyclopentane-1-carboxylate
hygroscopicity (result in words) [1]: very hygroscopic
moisture content at 25% RH [1]: 4.929%
moisture content at 55% RH [1]: 11.27%
moisture content at 75% RH (variation in the moisture content) [1]: 18.11%
moisture content at 75% RH (variation in the moisture content) ([1]; listed as magnesium salt): 18%
